# In patent US11931424B2, “Combination MCL-1 inhibitors with anti-body drug conjugates” (Gilead Sciences, Inc., priority 2021, dated 2024):
# Assays:
# Assay type in all cases: cell-based
# [1] = system: panel of breast cancer cell lines; assay: Compound A with targeted agents and chemotherapies, 72-hour in vitro proliferation assays
# HCC1806 = assay: Compound A + paclitaxel cell viability combination assay (Cell Titer Glo, Bliss synergy); conditions: Homo sapiens, read-out: Percent Inhibition
# Experimental: (§1) Cells were passaged according to ATCC guidelines with 0.25% Trypsin/EDTA (1× GIBCO-25200).
# Viability assessments were performed using Cell Titer Glo™ (Promega #G9241) according to manufactures microwell plate protocol and read for luminescence on Synergy Neo2 plate reader.
# For synergy matrix assays, TNBC cell lines were seeded 10,000 cells per well in clear-bottomed white 96-well plates (Corning #3909) in 100 μL of recommended cell culture medium. Plates were incubated at 37° C. and 100% RH for 20 hours prior to compound exposure.
# Cells were then exposed to compound A with the same checkerboard matrix using D300 dispenser and incubated for 48 hours prior to measurement of viability by Cell Titer Glo.
# (§2) Calculated values were compared to experimental results generated in the sixty-three-concentration checkerboard. Synergy or antagonism scores were generated depending on whether the observed growth inhibition was greater than or less than the calculated values, respectively.
# These differences were summed up across the whole checker-board (sixty-three wells) to give cumulative synergy and antagonism scores with units of μM^2% to reflect the 2D surface of the dose responses.
# (§3) Data for combination assays is presented in three formats.
# [2] = system: panel of haematalogical cancer cell lines; assay: Compound A with BTK inhibitors, 72-hour in vitro proliferation assays; conditions: combination Compound A × listed BTK inhibitor, 72-hour proliferation
# HCC1187 (TNBC) = assay: Compound A + SN-38 cell viability combination assay (Cell Titer Glo, Bliss synergy); conditions: HCC1187, 1st Replicate (n = 5), 72 hours; SN-38 0.0000 μM; Compound A μM = c0 of the row
# Excerpt: as §1, §2, §3
smiles,measurement,setting,value
"CC(=O)O[C@H]1C(=O)[C@@]2(C)[C@H]([C@H](OC(=O)c3ccccc3)[C@]3(O)C[C@H](OC(=O)[C@H](O)[C@@H](NC(=O)c4ccccc4)c4ccccc4)C(C)=C1C3(C)C)[C@]1(OC(C)=O)CO[C@@H]1C[C@@H]2O [Paclitaxel, reference compound]",Best CI,[1]; 72 h,0.32
same,Best CI,"[1]; AU565 cell line, compound A × partner, 72-hour proliferation",0.19
same,Best CI,"[1]; BT-20 cell line, compound A × partner, 72-hour proliferation",0.05
same,Best CI,"[1]; BT-474 cell line, compound A × partner, 72-hour proliferation",0.16
same,Best CI,"[1]; BT-549 cell line, compound A × partner, 72-hour proliferation",0.27
same,Best CI,"[1]; CAL-51 cell line, compound A × partner, 72-hour proliferation",0.50
same,Best CI,"[1]; CAL-85-1 cell line, compound A × partner, 72-hour proliferation",0.23
same,Best CI,"[1]; CAL-148 cell line, compound A × partner, 72-hour proliferation",0.25
same,Best CI,"[1]; CAMA-1 cell line, compound A × partner, 72-hour proliferation",0.05
same,Best CI,"[1]; DU-4475 cell line, compound A × partner, 72-hour proliferation",0.57
same,Best CI,"[1]; EVSA-T cell line, compound A × partner, 72-hour proliferation",0.26
same,Best CI,"[1]; HCC38, compound A × partner, 72-hour proliferation",0.21
same,Best CI,"[1]; HCC70, compound A × partner, 72-hour proliferation",0.14
same,Best CI,"[1]; HCC1143, compound A × partner, 72-hour proliferation",0.35
same,Best CI,"[1]; HCC1569, compound A × partner, 72-hour proliferation",0.41
same,Best CI,"[1]; HCC1806, compound A × partner, 72-hour proliferation",0.10
same,Best CI,"[1]; HCC1937, compound A × partner, 72-hour proliferation",0.18
same,Best CI,"[1]; HCC1954, compound A × partner, 72-hour proliferation",0.05
same,Best CI,"[1]; HCC2218, compound A × partner, 72-hour proliferation",0.55
same,Best CI,"[1]; HDQ-P1, compound A × partner, 72-hour proliferation",0.82
same,Best CI,"[1]; HMC-1-8, compound A × partner, 72-hour proliferation",0.11
same,Best CI,"[1]; JIMT-1, compound A × partner, 72-hour proliferation",0.50
same,Best CI,"[1]; MCF7 cells, Compound A × partner agent, 72-hour proliferation",0.32
same,Best CI,"[1]; MDA-MB-175-VII cells, Compound A × partner agent, 72-hour proliferation",0.13
same,Best CI,"[1]; MDA-MB-231 cells, Compound A × partner agent, 72-hour proliferation",0.33
same,Best CI,"[1]; MDA-MB-361 cells, Compound A × partner agent, 72-hour proliferation",0.50
same,Best CI,"[1]; MDA-MB-436 cells, Compound A × partner agent, 72-hour proliferation",0.68
same,Best CI,"[1]; MDA-MB-453 cells, Compound A × partner agent, 72-hour proliferation",0.07
same,Best CI,"[1]; MDA-MB-468 cells, Compound A × partner agent, 72-hour proliferation",0.27
same,Best CI,"[1]; SK-BR-3 cells, combination of compound A with the named agent, 72-hour proliferation",0.70
same,Best CI,"[1]; SUM159PT cells, combination of compound A with the named agent, 72-hour proliferation",0.06
same,Best CI,"[1]; T47D cells, combination of compound A with the named agent, 72-hour proliferation",0.08
same,Best CI,"[1]; ZR-75-1 cells, combination of compound A with the named agent, 72-hour proliferation",0.07
same,Best CI,"[1]; ZR-75-30 cells, combination of compound A with the named agent, 72-hour proliferation",0.41
same,inhibition at 0.0005 µM,HCC1806,2.3%
same,inhibition at 1 µM,HCC1806,64.8%
same,inhibition at 3 µM,HCC1806,69.9%
C=CC(=O)N1CCC([C@@H]2CCNc3c(C(N)=O)c(-c4ccc(Oc5ccccc5)cc4)nn32)CC1 [Zanubrutinib],Best CI,[2]; HBL-1 cells,0.05
same,Best CI Level,[2]; HBL-1 cells,55
same,Bliss Volume,[2]; HBL-1 cells,5.13
same,HSA volume,[2]; HBL-1 cells,10.34
same,Loewe Volume,[2]; HBL-1 cells,9.75
same,Synergy Score,[2]; HBL-1 cells,8.18
same,Best CI,[2]; OCI-Ly10 cells,0.50
same,Best CI Level,[2]; OCI-Ly10 cells,80
same,Bliss Volume,[2]; OCI-Ly10 cells,1.36
same,HSA volume,[2]; OCI-Ly10 cells,3.82
same,Loewe Volume,[2]; OCI-Ly10 cells,3.55
same,Synergy Score,[2]; OCI-Ly10 cells,4.04
same,Best CI,[2]; SU-DHL-2 cells,0.86
same,Best CI Level,[2]; SU-DHL-2 cells,40
same,Bliss Volume,[2]; SU-DHL-2 cells,1.42
same,HSA volume,[2]; SU-DHL-2 cells,0.63
same,Loewe Volume,[2]; SU-DHL-2 cells,1.23
same,Synergy Score,[2]; SU-DHL-2 cells,0.72
same,Best CI,[2]; SU-DHL-4 cells,1.06
same,Best CI Level,[2]; SU-DHL-4 cells,20
same,Bliss Volume,[2]; SU-DHL-4 cells,0.06
same,HSA volume,[2]; SU-DHL-4 cells,−4.15
same,Loewe Volume,[2]; SU-DHL-4 cells,−4.24
same,Synergy Score,[2]; SU-DHL-4 cells,0.76
same,Best CI,[2]; SU-DHL-8 cells,0.52
same,Best CI Level,[2]; SU-DHL-8 cells,30
same,Bliss Volume,[2]; SU-DHL-8 cells,−5.98
same,HSA volume,[2]; SU-DHL-8 cells,−5.32
same,Loewe Volume,[2]; SU-DHL-8 cells,−5.81
same,Synergy Score,[2]; SU-DHL-8 cells,0.66
same,Best CI,[2]; TMD8 cells,0.07
same,Best CI Level,[2]; TMD8 cells,80
same,Bliss Volume,[2]; TMD8 cells,2.31
same,HSA volume,[2]; TMD8 cells,4.24
same,Loewe Volume,[2]; TMD8 cells,3.33
same,Synergy Score,[2]; TMD8 cells,3.91
same,Best CI,[2]; U-2932 cells,0.54
same,Best CI Level,[2]; U-2932 cells,65
same,Bliss Volume,[2]; U-2932 cells,5.21
same,HSA volume,[2]; U-2932 cells,7.71
same,Loewe Volume,[2]; U-2932 cells,7.67
same,Synergy Score,[2]; U-2932 cells,4.92
CC#CC(=O)N1CC[C@@H](n2c(=O)n(-c3ccc(Oc4ccccc4)cc3)c3c(N)ncnc32)C1 [Tirabrutinib],Best CI,[2]; HBL-1 cells,0.06
same,Best CI Level,[2]; HBL-1 cells,60
same,Bliss Volume,[2]; HBL-1 cells,3.09
same,HSA volume,[2]; HBL-1 cells,8.94
same,Loewe Volume,[2]; HBL-1 cells,8.17
same,Synergy Score,[2]; HBL-1 cells,7.02
same,Best CI,[2]; OCI-Ly10 cells,0.63
same,Best CI Level,[2]; OCI-Ly10 cells,80
same,Bliss Volume,[2]; OCI-Ly10 cells,0.21
same,HSA volume,[2]; OCI-Ly10 cells,3.22
same,Loewe Volume,[2]; OCI-Ly10 cells,1.63
same,Synergy Score,[2]; OCI-Ly10 cells,2.72
same,Best CI,[2]; SU-DHL-2 cells,0.42
same,Best CI Level,[2]; SU-DHL-2 cells,20
same,Bliss Volume,[2]; SU-DHL-2 cells,0.39
same,HSA volume,[2]; SU-DHL-2 cells,−0.97
same,Loewe Volume,[2]; SU-DHL-2 cells,1.23
same,Synergy Score,[2]; SU-DHL-2 cells,0.98
same,Best CI,[2]; SU-DHL-4 cells,0.84
same,Best CI Level,[2]; SU-DHL-4 cells,20
same,Bliss Volume,[2]; SU-DHL-4 cells,1.52
same,HSA volume,[2]; SU-DHL-4 cells,−2.97
same,Loewe Volume,[2]; SU-DHL-4 cells,−0.81
same,Synergy Score,[2]; SU-DHL-4 cells,1.10
same,Best CI,[2]; SU-DHL-8 cells,0.45
same,Best CI Level,[2]; SU-DHL-8 cells,20
same,Bliss Volume,[2]; SU-DHL-8 cells,4.13
same,HSA volume,[2]; SU-DHL-8 cells,−6.01
same,Loewe Volume,[2]; SU-DHL-8 cells,−3.72
same,Synergy Score,[2]; SU-DHL-8 cells,0.60
same,Best CI,[2]; TMD8 cells,0.87
same,Best CI Level,[2]; TMD8 cells,20
same,Bliss Volume,[2]; TMD8 cells,1.28
same,HSA volume,[2]; TMD8 cells,3.05
same,Loewe Volume,[2]; TMD8 cells,1.96
same,Synergy Score,[2]; TMD8 cells,2.92
same,Best CI,[2]; U-2932 cells,0.62
same,Best CI Level,[2]; U-2932 cells,65
same,Bliss Volume,[2]; U-2932 cells,1.92
same,HSA volume,[2]; U-2932 cells,4.85
same,Loewe Volume,[2]; U-2932 cells,4.66
same,Synergy Score,[2]; U-2932 cells,3.69
"COc1nn(C)cc1C(=O)N[S@@]1(=O)=NC(=O)c2ccc3c(c2)N(C[C@@H]2CC[C@H]2[C@@H](OC)/C=C/C[C@H](C)C1)C[C@@]1(CCCc2cc(Cl)ccc21)CO3 [Compound A, N-[(4S,7aR,9aR,10S,11E,14S)-6′-chloro-10-methoxy-14-methyl-16-oxido-18-oxo-3′,4′,7,7a,8,9,9a,10,13,14,15,18-dodecahydro-2′H-spiro[1,19-(ethanediylidene)-16λ^4-cyclobuta[i][1,4]oxazepino[3,4-f][1,2,7]thiadiazacyclohexadecine-4,1′-naphthalen]-16-yl]-3-methoxy-1-methyl-1H-pyrazole-4-carboxamide]",Percent Inhibition,HCC1187 (TNBC),99.2%
